Data: ChEMBL document CHEMBL2417523, “One-pot microwave assisted synthesis of new 2-alkoxycarbonylmethylene-4-oxo-1,5-benzo-, naphtho-, and pyridodiazepines and assessment of their cytogenetic activity” (Eur J Med Chem, 2013)
Activity calls are given as the source filed them. The rule behind the calls is not given here.

Experiments:
Lymphocyte [1] = assay: Cytoprotective activity against human lymphocytes assessed as reduction in sister chromatid exchange frequency after 72 hrs by fluorescence/Geimsa method; type: functional, cell-based
Lymphocyte [2] = assay: Cytoprotective activity against human lymphocytes assessed as reduction in sister chromatid exchange frequency at 10 uM after 72 hrs by fluorescence/Geimsa method; type: functional, cell-based
[3] = Cytogenetic activity against human lymphocytes assessed as cytostatic activity measured as proliferative rate index at 10 uM after 72 hrs by fluorescence/Geimsa method; type: cell-based; settings: lymphocyte

SMILES	Activity (Lymphocyte [1])	Activity (Lymphocyte [2])	Activity [3]
COC(=O)/C=C1/CC(=O)Nc2cc(Cl)ccc2N1	Dose-dependent effect	Active	Toxic
COC(=O)/C=C1/CC(=O)Nc2ccccc2N1	Dose-dependent effect	–	–
COC(=O)/C=C1/CC(=O)Nc2cc(C)c(C)cc2N1	Dose-dependent effect	–	–
